Laboratory results from patent US20220160814A1, “COMPOSITIONS AND METHODS FOR PROTECTING TYPE 2 ALVEOLAR EPITHELIAL CELLS (AEC2)” (Lung Therapeutics, Inc., priority 2019, published 2022).
Where no end group is shown, it is not given here.

System: IPF fibroblasts
Assay type: cell-based
Method: FIGS. 1A-B. CSP7 deactivates IPF lung fibroblasts. IPF fibroblasts were treated with control peptide, TGFβ (a positive control to stimulate collagen), or a single dose of CSP7 and assayed 24 h later using ELISA against human collagen 1α1 (FIG. 1A). A cell titer glo assay was used to label live IPF fibroblasts grown on 96 well plates (FIG. 1B).
A cell titer glo assay (Promega, G7570) was used to label live IPF fibroblasts grown on 96 well plates. IPF fibroblasts have a senescent phenotype, and as such they release factors that contribute to aberrant wound healing. Inducing apoptosis in IPF fibroblasts may […]. Luminescence was read in a plate reader. […] Luminescence is proportional to living cell number, i.e., a decrease in luminescence correlates with cell death.

Substance: FTTFTVT [CSP7, FTTFTVT]
- apoptosis / live cell number (luminescence): did not stimulate apoptosis
